Results: PMC11478322, “1,2,4-Oxadiazole Derivatives: Physicochemical Properties, Antileishmanial Potential, Docking and Molecular Dynamic Simulations of Leishmania infantum Target Proteins” (Molecules, 2024)
Read-outs that look alike come from different tables or passages of the source.

What was measured:
[1] = system: L. infantum promastigotes; experiment: Promastigote viability (CellTiter-Glo ATP); type: cell-based, L. infantum (BH46 strain); details: for IC50: Leishmania infantum, read-out: IC50 Pro; for SI Pro/J774.G8: ratio CC50 (J774.G8)/IC50 (promastigotes); for SI Pro/L929: ratio CC50 (L929)/IC50 (promastigotes); for SI (promastigotes vs fibroblasts and J774.G8 macrophages): stated as bound
Experimental: Promastigote forms of L. infantum (BH46 strain) were cultivated at 27 °C in Schneider’s medium, supplemented with 10% (v/v) heat-inactivated fetal bovine serum (FBS, Gibco, Waltham, MA, USA), 100 U/mL penicillin, and 0.01 mg/mL streptomycin. Parasites in the log phase were used in the test of drugs against promastigotes, whereas those obtained in the stationary phase were used to infect peritoneal macrophages. […] The viability of promastigotes was assessed through ATP production using the CellTiter-Glo® Luminescent Cell Viability assay (Promega, Madison, WI, USA), in accordance with the manufacturer’s instructions.

[2] = Cytotoxicity assay (MTT) in fibroblasts; type: cell-based; details: mouse, 48 h of treatment, MTT, tested 6.25–200 µM
Experimental: (§1) The cytotoxic potential of Ox1–Ox7 was first evaluated in fibroblasts (L929) and macrophages (J774.G8). For this, 5 × 10^5 cells/mL were seeded in 96-well microplates containing 100 μL of DMEM or RPMI-1640 medium supplemented with 10% fetal bovine serum (FBS) and cultivated for 24 h at 37 °C, under 5% CO2 atmosphere. […] Untreated cells were considered as negative control. The cell viability was measured by spectrometry after 48 h of cultivation using MTT (Sigma-Aldrich, St. Louis, MO, USA) methodology described by Mosmann. The optical densities (OD) of the samples were read in a Glomax Multiplate reader (Promega, Madison, WI, USA) at 540 nm. Each assay was performed in triplicate in three independent experiments. […] The selectivity index (SI) for each compound was calculated as the ratio between the CC50 values obtained for J774.G8 macrophages and fibroblast and the IC50 values for promastigotes. The compound with a higher value of SI was selected for cytotoxicity evaluation in macrophages obtained from BALB/c mice peritoneal exudate (PeM), following the methodology described above.

[3] = Cytotoxicity assay (MTT) in macrophages; type: cell-based; details: mouse, 48 h of treatment, MTT, tested 6.25–200 µM
Experimental: as §1

[4] = system: L. infantum amastigotes in PeMs; experiment: microbe, parasite or virus in culture; details: for number of intracellular amastigotes / parasites in infected PeMs: glucantime 346.19 µM, Amphotericin B 10.55 µM
Experimental: After initial cultivation, non-adherent cells were removed by washing with fresh RPMI medium. Subsequently, PeMs were infected with stationary promastigote forms of L. infantum at 1:20 PeM/promastigotes ratio. […] After incubation time, the samples were washed in PBS, fixed with methanol, and stained with Giemsa. The percentage of infected macrophages was determined by counting 150 randomly chosen cells in duplicate, and the survival index (SuI) was calculated by multiplying the percentage of infected cells by the mean of amastigotes in infected cells. […] The tests were carried out in duplicate in three independent experiments.

[5] = system: L. infantum amastigotes in PeMs; set-up: method as in PMID 18660990, PMID 23070424; details: concentration used as positive control; read-out: IC50 of reference drugs; cited from earlier work
[6] = system: L. infantum promastigotes; experiment: Scanning electron microscopy of promastigotes (rounded cells count); type: cell-based; details: 48 h, control 5%
Experimental: To identify alterations in the morphology of promastigotes and amastigotes, scanning (SEM) and transmission (TEM) electron microscopy assays were performed. For SEM, L. infantum promastigotes were treated with once or twice the IC50 concentration of Ox1 for 48 h. Subsequently, the parasites were harvested by centrifugation, washed with 100 mM PBS, pH 7.2, fixed at room temperature, for 1 h in 2.5% glutaraldehyde solution diluted in 0.1 M cacodylate buffer, pH 7.2. Cells were adhered to coverslips pre-coated with poly-L-lysine, post-fixed for 1 h with a solution containing 1% osmium tetroxide, 0.8% potassium ferricyanide, and 5 mM calcium chloride diluted in 0.1 M cacodylate buffer, pH 7.2, in light-protected environment. Then, the cells were dehydrated in graded ethanol series (15–100%) for 10 min at room temperature. Samples were critical-point dried in a LEICA EM CPD300 apparatus (Leica Microsystems, Wetzlar, Hessen, DE, Germany) and then coated with 20 nm gold and observed in a JEOL T-200 scanning electron microscope (JEOL Ltd., Tokyo, Japan). For MET, promastigotes and infected PeMs were treated or not with once or twice IC50 concentration of Ox1, fixed and post-fixed, as described above. For infected–adhered peritoneal macrophages, after the post-fixation, the cells were scraped off the culture dishes with a rubber policeman. […]

[7] = system: peritoneal macrophages from BALB/c mice (PeM); experiment: Cytotoxicity assay (MTT) in peritoneal macrophages; type: cell-based
Experimental: as §1

[8] = Cytotoxicity assay (MTT) in peritoneal macrophages; type: cell-based, BALB/c mice; details: BALB/c, mouse, peritoneal macrophages (PeM); peritoneal macrophages, estimated; read-out: CC50 for PeMs
Experimental: as §1

fibroblasts (L929) = experiment: Cytotoxicity assay (MTT) in fibroblasts; type: cell-based; details: 200 µM, 48 h
Experimental: as §1

macrophages (J774.G8) = experiment: Cytotoxicity assay (MTT) in macrophages; type: cell-based; details: 200 µM, 48 h
Experimental: as §1

[9] = system: L. infantum promastigotes; experiment: Mitochondrial membrane potential, Rhodamine 123 flow cytometry; type: cell-based
Experimental: Afterward, the cells were centrifuged and stained with Rhodamine 123 (10 µg/mL, molecular probes, Invitrogen™, Waltham, MA, USA) in PBS for 15 min at 27 °C, in the dark. […] The changes in the fluorescence intensity for fluorochrome were determined by the variation index calculated as follows: (MT − MC)/MC where MT is the mean fluorescence intensity of treated cells and MC is the mean of fluorescence of control cells without treatment. A total of 20,000 events were acquired, and the data were analyzed with FLOWJO software version 10.2.

[10] = promastigotes, 48 h of treatment
[11] = 24 h, Ox1 8.24, 16.49, 32.98 µM

Row | Compound | melting point [°C] | IC50 [1, 10] [µM] | SI Pro/J774.G8 [1] | CC50 at 48 h ([2]; L929 fibroblasts) [µM] | CC50 at 48 h ([3]; J774.G8 macrophages) [µM] | number of intracellular amastigotes / parasites in infected PeMs [4, 11] | SI Pro/L929 [1] | SI (promastigotes vs fibroblasts and J774.G8 macrophages) [1] | also measured
1 | C#CCN(c1nc(-c2cccc([N+](=O)[O-])c2)no1)C1CCCCC1 [Ox7, N-Cyclohexyl-3-(3-nitrophenyl)-N-(prop-2-yn-1-yl)-1,2,4-oxadiazol-5-amine] | 94 to 96 | 98.2 ± 1.4 | 2.0 | > 200 | 197 ± 6 | – | – | – | –
2 | C[C@@H]1[C@H](O)[C@@H](C)/C=C/C=C/C=C/C=C/C=C/C=C/C=C/[C@H](O[C@@H]2O[C@H](C)[C@@H](O)[C@H](N)[C@@H]2O)C[C@@H]2O[C@](O)(C[C@@H](O)C[C@@H](O)[C@H](O)CC[C@@H](O)C[C@@H](O)CC(=O)O[C@H]1C)C[C@H](O)[C@H]2C(=O)O [Amphotericin B, reference compound] | – | – | – | – | – | reduced the number of intracellular amastigotes | – | – | IC50 [5]: 10.6 µM
3 | C#CCN(c1nc(-c2ccc([N+](=O)[O-])cc2)no1)C1CCCCC1 [Ox6, N-Cyclohexyl-3-(4-nitrophenyl)-N-(prop-2-yn-1-yl)-1,2,4-oxadiazol-5-amine] | 108 to 110 | 92.2 ± 1.9 | 2.5 | > 200 | > 200 | – | 3.7 | lower than 5.0 | –
4 | O=[N+]([O-])c1cccc(-c2noc(NC3CCCCC3)n2)c1 [Ox2, N-Cyclohexyl-3-(3-nitrophenyl)-1,2,4-oxadiazol-5-amine] | 131 to 133 | 220 ± 3.6 | – | > 200 | > 200 | – | 1.7 | lower than 5.0 | –
5 | c1ccc(-c2noc(NC3CCCCC3)n2)cc1 [Ox, N-Cyclohexyl-3-(phenyl)-1,2,4-oxadiazol-5-amine] | 125 to 127 | – | – | – | – | – | – | – | –
6 | COc1ccc(-c2noc(NC3CCCCC3)n2)cc1 [Ox1, N-Cyclohexyl-3-(4-methoxyphenyl)-1,2,4-oxadiazol-5-amine] | 109 to 110 | 32.9 ± 2.2 | 8.9 | > 200 | > 200 | significantly decreased | 9.7 | – | survival index (SuI) of amastigotes inside the macrophages [4, 11]: significantly decreased; SI against amastigotes ([4]; CC50 for PeM/IC50 of amastigote forms): 61.7; IC50 ([4]; Leishmania infantum, Peritoneal macrophage, 24 h, read-out: IC50 for amastigote forms in PeMs): 10 µM; reduction in promastigote viability ([1]; 25 µM, 48 h): 32%; reduction of growth of parasites ([1]; 50 µM, 24 h): 66%; promastigote viability inhibition ([1]; 200 µM, regardless of the cultivation time (24 and 48 h)): exceeded 90%; SI against promastigotes compared to peritoneal macrophages ([1]; CC50 PeM/IC50 promastigotes): 18.7; increase in activity compared to compound Ox3 ([1]; promastigote IC50 comparison): about 10 times; percentage of rounding cells ([6]; IC50 (32.98 µM)): 7%; percentage of rounding cells ([6]; twice the IC50 (65.96 µM)): 30%; reduction of viability of PeMs ([7]; 400 µM, compared to control cells): 13%; viability of macrophages (PeM) ([7]; 6.25 to 200 µM): significantly increased; CC50 at 48 h [8]: 617 µM; reduction of cell viability, fibroblasts (fibroblasts (L929)): 20%; reduction of cell viability, macrophages J774.G8 (macrophages (J774.G8)): 26%; variation index of membrane potential (Rhodamine 123) ([9]; 2× IC50 of Ox1, 48 h): −0.32; variation index of membrane potential (Rhodamine 123) ([9]; IC50 of Ox1, 48 h): +0.28; membrane potential (Rhodamine 123 fluorescence) vs control ([9]; ½ IC50 of Ox1, 48 h): No difference
7 | Cc1ccc(-c2noc(NC3CCCCC3)n2)cc1 [Ox4, N-Cyclohexyl-3-(4-methylphenyl)-1,2,4-oxadiazol-5-amine] | – | – | – | – | – | – | 1.7 | – | IC50 ([1]; 48 h): 174 ± 12.3 µM; CC50 at 48 h ([2]; read-out: CC50 L929): > 200 µM; CC50 at 48 h ([3]; read-out: CC50 J774.G8): > 200 µM
8 | C#CCN(c1nc(-c2ccccc2)no1)C1CCCCC1 [Ox5, N-Cyclohexyl-3-phenyl-N-(prop-2-yn-1-yl)-1,2,4-oxadiazol-5-amine] | 112 to 114 | 84.7 ± 3.6 | – | > 200 | 160 ± 6.5 | – | 4.4 | lower than 5.0 | –
9 | O=[N+]([O-])c1ccc(-c2noc(NC3CCCCC3)n2)cc1 [Ox3, N-Cyclohexyl-3-(4-nitrophenyl)-1,2,4-oxadiazol-5-amine] | 201 to 203 | 336 ± 12.1 | – | > 200 | > 200 | – | 1.1 | – | –
10 | antimoniate of meglumine [glucantime, reference compound] | – | – | – | – | – | reduced the number of intracellular amastigotes | – | – | IC50 [5]: 346 µM
